Publication PMC7238120, “Strong and Selective Inhibitory Effects of the Biflavonoid Selamariscina A against CYP2C8 and CYP2C9 Enzyme Activities in Human Liver Microsomes” (Pharmaceutics, 2020)

Tests used:
Format in all cases: in vitro ADME
UGT1A3 = target: T1, UGT1A3 (Homo sapiens, UniProt P35503); experiment: Inhibition of UGT1A3 (chenodeoxycholic acid glucuronidation) in human liver microsomes; details: substrate chenodeoxycholic acid; HLMs
T1 construct: tissue XenoTech XTreme 200; host or cells: pooled human liver microsomes
Description: (§1) The ability of selamariscina A to inhibit the metabolism of six UGT enzyme probe substrates was evaluated using previously developed methods with minor modifications. The microsomal incubation was performed by dividing the non-interactive substrate cocktail sets (set A included SN-38 for UGT1A1, CDCA for UGT1A3 and TFP for UGT1A4 while set B included N-SER for UGT1A6, MPA for UGT1A9 and NX for UGT2B7) (Table 2). In brief, HLMs (0.25 mg/mL) were activated by incubation in the presence of alamethicin (25 µg/mL) for 15 min on ice. After the addition of UGT probe substrates and inhibitor (0, 0.5, 2, 5, 20 and 50 μM), the incubation mixtures were pre-incubated at 37 °C for 5 min. […] After centrifugation at 18,000 g (5 min, 4 °C), aliquots of supernatants were analyzed by LC–MS/MS. […]
(§2) All metabolites and the IS were separated on a Kinetex XB-C18 column (100 × 2.10 mm, 2.6 μm, 100 Å; Phenomenex, Torrance, CA, USA) and analyzed using a Shimadzu LCMS 8060 triple-quadrupole mass spectrometer coupled with a Nexera X2 ultra high-performance liquid chromatography system (Shimadzu, Kyoto, Japan) equipped with an electrospray ionization interface. […] Quantitation was conducted in selected reaction monitoring (SRM) modes with the precursor-to-product ion transition for each metabolite (Table 1 and Table 2).
(§3) We analyzed the data with Shimadzu LabSolution LC–MS software. […]

UGT1A6 = target: T2, UGT1A6 (Homo sapiens, UniProt P19224); experiment: Inhibition of UGT1A6 (N-acetylserotonin glucuronidation) in human liver microsomes; details: substrate N-acetylserotonin; HLMs; average ± standard error
T2 construct: tissue XenoTech XTreme 200; host or cells: pooled human liver microsomes
Description: as §1, §2, §3

UGT1A9 = target: T3, UGT1A9 (Homo sapiens, UniProt O60656); experiment: Inhibition of UGT1A9 (mycophenolic acid glucuronidation) in human liver microsomes; details: substrate mycophenolic acid; HLMs; average ± standard error
T3 construct: tissue XenoTech XTreme 200; host or cells: pooled human liver microsomes
Description: as §1, §2, §3

CYP2C8 = target: T4, CYP2C8 (Homo sapiens, UniProt P10632); experiment: Inhibition of CYP2C8-catalyzed rosiglitazone 5-hydroxylation in human liver microsomes; parameters: incubation mixtures containing pooled human liver microsomes (HLMs, XTreme 200, XenoTech); tissue XenoTech XTreme 200; host or cells: pooled human liver microsomes
T4 sequence (P10632 1-490): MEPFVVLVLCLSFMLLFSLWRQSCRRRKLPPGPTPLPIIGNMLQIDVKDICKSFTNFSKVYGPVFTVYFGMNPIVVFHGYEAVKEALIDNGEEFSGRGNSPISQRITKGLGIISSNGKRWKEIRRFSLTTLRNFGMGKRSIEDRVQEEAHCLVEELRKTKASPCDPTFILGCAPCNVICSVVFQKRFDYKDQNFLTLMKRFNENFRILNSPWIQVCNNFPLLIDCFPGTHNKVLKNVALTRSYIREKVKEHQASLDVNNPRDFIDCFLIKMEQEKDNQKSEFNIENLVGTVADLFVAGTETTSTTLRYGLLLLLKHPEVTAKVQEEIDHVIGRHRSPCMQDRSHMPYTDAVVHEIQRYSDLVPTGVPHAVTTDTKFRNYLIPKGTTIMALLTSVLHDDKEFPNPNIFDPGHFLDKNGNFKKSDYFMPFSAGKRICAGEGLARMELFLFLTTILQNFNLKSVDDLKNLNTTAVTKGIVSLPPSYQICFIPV
Text: We used HLMs to determine the mechanisms and constants (Ki values) for […] A inhibition of CYP1A2, CYP2B6, CYP2C8, CYP2C9 and CYP3A. […] The substrates were used at concentrations approximately near to their respective Km values. […] The other conditions were the same as in the cytochrome P450 inhibition study. […] Phenomenex, Torrance, CA, USA) and analyzed using a Shimadzu LCMS 8060 triple-quadrupole mass spectrometer coupled with a Nexera X2 ultra high-performance liquid chromatography system (Shimadzu, Kyoto, Japan) equipped with an electrospray ionization interface. The mobile phase consisted of 0.1% formic acid in water (A) and 0.1% formic acid in acetonitrile (B). […] The flow rate was 0.2 mL/min. Electrospray ionization was performed in positive-ion mode at 4000 V or in negative-ion mode at -3500 V. The optimum operating conditions were determined as follows: vaporizer temperature, 300 °C; capillary temperature, 350 °C; collision gas (argon) pressure, 1.5 mTorr. Quantitation was conducted in selected reaction monitoring (SRM) modes with the precursor-to-product ion transition for each metabolite (Table 1 and Table 2). We analyzed the data with Shimadzu LabSolution LC-MS software. The IC50 values were calculated by WinNonlin software (Pharsight, Mountain View, CA, USA). […]

T1 sequence (P35503 29-534): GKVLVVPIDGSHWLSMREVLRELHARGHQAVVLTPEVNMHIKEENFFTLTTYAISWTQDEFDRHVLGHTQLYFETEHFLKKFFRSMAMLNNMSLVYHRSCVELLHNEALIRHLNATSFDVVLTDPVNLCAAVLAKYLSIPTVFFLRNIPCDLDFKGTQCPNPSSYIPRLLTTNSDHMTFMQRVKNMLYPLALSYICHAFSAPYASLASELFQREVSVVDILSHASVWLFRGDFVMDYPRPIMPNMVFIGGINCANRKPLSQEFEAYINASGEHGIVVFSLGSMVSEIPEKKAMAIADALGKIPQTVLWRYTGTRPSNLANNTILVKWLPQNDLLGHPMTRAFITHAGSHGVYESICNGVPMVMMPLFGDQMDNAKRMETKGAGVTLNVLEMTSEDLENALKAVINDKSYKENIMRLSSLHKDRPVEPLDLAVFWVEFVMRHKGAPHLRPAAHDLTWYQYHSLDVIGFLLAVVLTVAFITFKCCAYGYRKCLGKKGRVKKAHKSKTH
T2 sequence (P19224 27-532): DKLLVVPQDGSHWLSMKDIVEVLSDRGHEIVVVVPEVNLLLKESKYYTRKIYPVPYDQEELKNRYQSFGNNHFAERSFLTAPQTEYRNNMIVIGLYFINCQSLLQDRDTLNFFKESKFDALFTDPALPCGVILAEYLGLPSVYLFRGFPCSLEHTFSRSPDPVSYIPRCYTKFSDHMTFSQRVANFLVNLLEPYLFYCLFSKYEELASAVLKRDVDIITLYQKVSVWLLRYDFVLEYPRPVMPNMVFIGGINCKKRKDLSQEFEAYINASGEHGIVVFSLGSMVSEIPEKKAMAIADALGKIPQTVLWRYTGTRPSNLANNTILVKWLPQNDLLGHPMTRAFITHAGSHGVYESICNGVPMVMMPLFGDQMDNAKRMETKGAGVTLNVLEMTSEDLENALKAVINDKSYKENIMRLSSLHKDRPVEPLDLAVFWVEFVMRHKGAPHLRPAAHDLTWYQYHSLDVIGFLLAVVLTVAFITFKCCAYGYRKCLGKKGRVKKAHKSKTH
T3 sequence (O60656 26-530): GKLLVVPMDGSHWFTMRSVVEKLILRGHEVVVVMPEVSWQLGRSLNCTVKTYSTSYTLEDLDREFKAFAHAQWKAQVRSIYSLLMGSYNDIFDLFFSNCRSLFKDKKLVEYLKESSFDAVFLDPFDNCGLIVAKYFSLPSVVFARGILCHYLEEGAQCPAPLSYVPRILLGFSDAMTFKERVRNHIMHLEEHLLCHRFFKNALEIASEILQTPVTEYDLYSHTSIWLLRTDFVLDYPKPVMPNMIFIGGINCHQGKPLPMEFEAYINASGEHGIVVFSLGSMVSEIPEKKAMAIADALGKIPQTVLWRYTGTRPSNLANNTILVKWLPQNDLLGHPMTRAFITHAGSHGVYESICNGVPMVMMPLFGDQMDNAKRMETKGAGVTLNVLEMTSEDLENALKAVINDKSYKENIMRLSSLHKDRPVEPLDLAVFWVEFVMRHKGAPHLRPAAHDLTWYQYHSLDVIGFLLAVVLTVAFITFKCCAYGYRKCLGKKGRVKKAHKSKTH

IC50 (UGT1A3): > 50 µM
IC50 (UGT1A6): 46.1 ± 11.7 µM
IC50 (UGT1A9): 40.4 ± 11.1 µM
Ki (CYP2C8; HLMs, average ± standard error, triplicate): 0.01 ± 0.003 µM
Mode of Inhibition, CYP2C8 rosiglitazone (CYP2C8; microsomes): Noncompetitive, partial
SMILES: O=C1CC(c2cc(-c3c(O)ccc4c(=O)cc(-c5ccc(O)cc5)oc34)c(O)cc2O)Oc2cc(O)cc(O)c21 (centres unmarked) [selamariscina A]
